Experimental findings from patent publication US12071425B2 (Genentech, Inc., priority 2018, dated 2024) are described below.

Structures can show the parent of a compound that is named as a salt.

Chain of kinase domain of IRE1 alpha (His-tagged kinase dead construct KR, AA G547-L977, D688N) (O75460 547-977 D688N): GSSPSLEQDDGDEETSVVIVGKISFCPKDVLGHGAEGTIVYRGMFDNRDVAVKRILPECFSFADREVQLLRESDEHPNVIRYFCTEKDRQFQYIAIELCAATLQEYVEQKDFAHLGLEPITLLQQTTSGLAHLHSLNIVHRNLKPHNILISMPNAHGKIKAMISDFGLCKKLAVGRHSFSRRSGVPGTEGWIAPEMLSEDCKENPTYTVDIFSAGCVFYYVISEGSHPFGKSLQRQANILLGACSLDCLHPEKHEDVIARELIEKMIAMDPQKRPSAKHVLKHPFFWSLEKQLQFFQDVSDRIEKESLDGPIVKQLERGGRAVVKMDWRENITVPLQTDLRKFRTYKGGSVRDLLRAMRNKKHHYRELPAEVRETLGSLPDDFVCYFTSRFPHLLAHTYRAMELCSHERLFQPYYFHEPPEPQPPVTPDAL

The experiment deals with kinase domain of IRE1 alpha (His-tagged kinase dead construct KR, AA G547-L977, D688N) (Homo sapiens (Human), UniProt O75460, D688N). Description: IRE1α TR-FRET competition binding assay. To be noted: competition with Kinase Tracer 236, 0.1 μM; one hour at room temperature. In outline:
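Compound displacement of an ATP-site fluorescent tracer (0.1 μM final) measured by TR-FRET after 1 h at room temperature. Protein, a His-tagged D688N kinase/RNase construct from Sf9 cells (0.006 μM final), was pre-bound 1 h at 4° C to Eu anti-His antibody (0.002 μM) in pH 7.5 HEPES buffer.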
A general note: TR-FRET usually uses a lanthanide donor and a delayed reading to cut background.
Turning to `Cc1c(NS(=O)(=O)c2ccccc2Cl)ccc(Oc2ncccc2-c2ccnc(N[C@H]3CCCNC3)n2)c1C` [Compound 123, (S)-2-Chloro-N-(2,3-dimethyl-4-((3-(2-(piperidin-3-ylamino)pyrimidin-4-yl)pyridin-2-yl)oxy)phenyl)benzenesulfonamide], the IC50 (in general, the point on the concentration scale where inhibition reaches its midpoint) was determined as 50 nM.
Compound `Cc1cc(NS(=O)(=O)C2CCCC2)cc(F)c1Oc1ncccc1-c1ccnc(N[C@H]2CCCNC2)n1` [Compound 116, (S)-N-(3-fluoro-5-methyl-4-((3-(2-(piperidin-3-ylamino)pyrimidin-4-yl)pyridin-2-yl)oxy)phenyl)cyclopentanesulfonamide hydrochloride] showed an IC50 of 23 nM.
As to `O=S(=O)(Cc1ccc(F)cc1F)Nc1c(F)cc(Oc2ncccc2-c2ccnc(N[C@@H]3CNC[C@H](CF)C3)n2)c(F)c1F` [Compound 320, 1-(2,4-Difluorophenyl)-N-(2,3,6-trifluoro-4-((3-(2-(((3S,5R)-5-(fluoromethyl)piperidin-3-yl)amino)pyrimidin-4-yl)pyridin-2-yl)oxy)phenyl)methanesulfonamide], the IC50 worked out at 35 nM.
`C[C@@]1(F)CNC[C@@H](Nc2nccc(-c3cccnc3Oc3cc(F)c(NS(=O)(=O)Cc4ccc(F)cc4F)c(F)c3F)n2)C1` [Compound 281, 1-(2,4-Difluorophenyl)-N-(2,3,6-trifluoro-4-((3-(2-(((3S,5S)-5-fluoro-5-methylpiperidin-3-yl)amino)pyrimidin-4-yl)pyridin-2-yl)oxy)phenyl)methanesulfonamide] displayed an IC50 of 0.34 nM.
The same measure for `CN=S(=O)(Cc1ccccc1)Nc1ccc(Oc2ncccc2-c2ccnc(N[C@H]3CCCNC3)n2)c(F)c1F` (stereo partly drawn) [Compound 274, N-(2,3-difluoro-4-((3-(2-(((S)-piperidin-3-yl)amino)pyrimidin-4-yl)pyridin-2-yl)oxy)phenyl)-N′-methyl-1-phenylmethanesulfonimidamide]: 400 nM; for `Cc1c(F)c(NS(=O)(=O)Cc2ccc(C#N)cc2)c(F)c(F)c1Oc1ncccc1-c1ccnc(N[C@@H]2CNC[C@@H](F)C2)n1` [Compound 255, 1-(4-Cyanophenyl)-N-(2,3,6-trifluoro-4-((3-(2-(((3S,5S)-5-fluoropiperidin-3-yl)amino)pyrimidin-4-yl)pyridin-2-yl)oxy)-5-methylphenyl)methanesulfonamide]: 230 nM.
Compound `O=S(=O)(Cc1ccccc1F)Nc1c(F)cc(Oc2ncccc2-c2ccnc(NC3CNCC(C4CC4)C3)n2)c(F)c1F` (single isomer, unassigned) [Compound 326, N-(4-((3-(2-((5-Cyclopropylpiperidin-3-yl)amino)pyrimidin-4-yl)pyridin-2-yl)oxy)-2,3,6-trifluorophenyl)-1-(2-fluorophenyl)methanesulfonamide] displayed an IC50 of 0.61 nM.
In turn, `COC1CNCC(Nc2nccc(-c3cccnc3Oc3cc(F)c(NS(=O)(=O)Cc4ccccc4)c(F)c3F)n2)C1` (single isomer, unassigned) [Compound 318, 1-Phenyl-N-(2,3,6-trifluoro-4-((3-(2-((5-methoxypiperidin-3-yl)amino)pyrimidin-4-yl)pyridin-2-yl)oxy)phenyl)methanesulfonamide] returned an IC50 of 0.3 nM.
`Cc1ccc(NS(=O)(=O)Cc2ccccc2)cc1Oc1ncccc1-c1ccnc(N[C@H]2CCCNC2)n1` [Compound 136, (S)—N-(4-Methyl-3-((3-(2-(piperidin-3-ylamino)pyrimidin-4-yl)pyridin-2-yl)oxy)phenyl)-1-phenylmethanesulfonamide hydrochloride] yielded an IC50 of 200 nM.
The compound `O=S(=O)(Nc1ccc(Oc2ncccc2-c2ccnc(N[C@H]3CCCNC3)n2)c(F)c1F)c1cccc(OC(F)F)c1` [Compound 208, (S)-N-(2,3-difluoro-4-((3-(2-(piperidin-3-ylamino)pyrimidin-4-yl)pyridin-2-yl)oxy)phenyl)-3-(difluoromethoxy)benzenesulfonamide] returned an IC50 of 11 nM.
The compound `CCCS(=O)(=O)Nc1cc(F)c(Oc2ncccc2-c2ccnc(N[C@H]3CC[C@H](N)CC3)n2)c(F)c1` [Compound 122, N-(4-((3-(2-(((1r,4r)-4-aminocyclohexyl)amino)pyrimidin-4-yl)pyridin-2-yl)oxy)-3,5-difluorophenyl)propane-1-sulfonamide hydrochloride] returned a 50% inhibitory concentration (IC50) of 20 nM.
Compound `Cc1c(NC(=O)CC2CCCCC2)ccc(Oc2ncccc2-c2ccnc(N[C@H]3CCCNC3)n2)c1C` [Compound 129, (S)-2-Cyclohexyl-N-(2,3-dimethyl-4-((3-(2-(piperidin-3-ylamino)pyrimidin-4-yl)pyridin-2-yl)oxy)phenyl)acetamide] yielded an IC50 of 230 nM.
`O=S(=O)(Nc1ccc(Oc2ncccc2-c2ccnc(N[C@H]3CCCNC3)n2)c(F)c1F)c1cccc(OC(F)(F)F)c1` [Compound 207, (S)-N-(2,3-difluoro-4-((3-(2-(piperidin-3-ylamino)pyrimidin-4-yl)pyridin-2-yl)oxy)phenyl)-3-(trifluoromethoxy)benzenesulfonamide]: the IC50 turned out to be 7.4 nM.
`O=S(=O)(Cc1ccccc1)Nc1c(F)cc(Oc2ncccc2-c2ccnc(N[C@H]3CCCNC3)n2)c(F)c1F` [Compound 153, (S)-1-Phenyl-N-(2,3,6-trifluoro-4-((3-(2-(piperidin-3-ylamino)pyrimidin-4-yl)pyridin-2-yl)oxy)phenyl)methanesulfonamide hydrochloride] registered an IC50 of 3.8 nM.
Regarding `Cc1ccc(NS(=O)(=O)c2ccccc2Cl)cc1Oc1ncccc1-c1ccnc(N[C@H]2CCCNC2)n1` [Compound 135, (S)-2-Chloro-N-(4-methyl-3-((3-(2-(piperidin-3-ylamino)pyrimidin-4-yl)pyridin-2-yl)oxy)phenyl)benzenesulfonamide hydrochloride], the half-inhibitory concentration (IC50) was found to be 41 nM.
In the case of `O=S(=O)(CC1CCC1)Nc1ccc(Oc2ncccc2-c2ccnc(N[C@H]3CCCNC3)n2)c(F)c1F` [Compound 173, (S)-1-cyclobutyl-N-(2,3-difluoro-4-((3-(2-(piperidin-3-ylamino)pyrimidin-4-yl)pyridin-2-yl)oxy)phenyl)methanesulfonamide] it was 8.3 nM.
As to `O=S(=O)(Cc1ccc(F)cc1F)Nc1c(F)cc(Oc2ncccc2-c2ccnc(N[C@@H]3CNC[C@@H](F)C3)n2)c(F)c1F` [Compound 351, 1-(2,4-Difluorophenyl)-N-[2,3,6-trifluoro-4-[[3-[2-[[(3S,5S)-5-fluoro-3-piperidyl]amino]pyrimidin-4-yl]-2-pyridyl]oxy]phenyl]methanesulfonamide], the IC50 is 0.91 nM.
Regarding `CC(C)(C)CCS(=O)(=O)Nc1ccc(Oc2ncccc2-c2ccnc(N[C@H]3CCCNC3)n2)c(F)c1F` [Compound 226, (S)-N-(2,3-difluoro-4-((3-(2-(piperidin-3-ylamino)pyrimidin-4-yl)pyridin-2-yl)oxy)phenyl)-3,3-dimethylbutane-1-sulfonamide], the IC50 came out at 18 nM.
In the case of `CCC(F)(F)CS(=O)(=O)Nc1c(F)cc(Oc2nc(C)ccc2-c2ccnc(N[C@@H]3CNC[C@@H](F)C3)n2)c(F)c1F` [Compound 270, 2,2-Difluoro-N-(2,3,6-trifluoro-4-((3-(2-(((3S,5S)-5-fluoropiperidin-3-yl)amino)pyrimidin-4-yl)-6-methylpyridin-2-yl)oxy)phenyl)butane-1-sulfonamide], the IC50 amounted to 0.54 nM.
Take `O=S(=O)(Cc1ccccc1)Nc1c(F)cc(Oc2ncccc2-c2ccnc(NC3CNCC4(C3)CC4(F)F)n2)c(F)c1F` (single isomer, unassigned) [Compound 301, N-(4-((3-(2-((1,1-Difluoro-5-azaspiro[2.5]octan-7-yl)amino)pyrimidin-4-yl)pyridin-2-yl)oxy)-2,3,6-trifluorophenyl)-1-phenylmethanesulfonamide]: the IC50 is 0.36 nM.
Consider `CN1CCC(Nc2nccc(-c3cccnc3Oc3ccc(NS(=O)(=O)Cc4ccccc4)c(F)c3F)n2)CC1` [Compound 168, N-(2,3-difluoro-4-((3-(2-((1-methylpiperidin-4-yl)amino)pyrimidin-4-yl)pyridin-2-yl)oxy)phenyl)-1-phenylmethanesulfonamide], for which the IC50 came out at 67 nM.
The compound `Cc1cc(NS(=O)(=O)C(C)c2ccccc2)c(F)c(F)c1Oc1ncccc1-c1ccnc(N[C@@H]2CNC[C@@H](F)C2)n1` (single isomer, unassigned) [Compound 313, hydrochloride] came in with an IC50 of 1.2 nM.
The same measure for `Cc1c(NS(=O)(=O)Cc2ccccc2)cccc1Oc1ncccc1-c1ccnc(N[C@H]2CCCNC2)n1` [Compound 140, (S)—N-(2-Methyl-3-((3-(2-(piperidin-3-ylamino)pyrimidin-4-yl)pyridin-2-yl)oxy)phenyl)-1-phenylmethanesulfonamide hydrochloride]: 26 nM; for `O=S(=O)(Cc1ccccc1)Nc1cccc(Oc2ncccc2-c2ccnc(N[C@H]3CCCNC3)n2)c1F` [Compound 142, (S)—N-(2-Fluoro-3-((3-(2-(piperidin-3-ylamino)pyrimidin-4-yl)pyridin-2-yl)oxy)phenyl)-1-phenylmethanesulfonamide hydrochloride]: 16 nM; for `Cc1cc(NS(=O)(=O)C(C)c2ccccc2)c(F)c(F)c1Oc1ncccc1-c1ccnc(N[C@@H]2CNC[C@@H](F)C2)n1` (single isomer, unassigned) [Compound 314]: 0.24 nM.
With `Cc1cc(NS(=O)(=O)C2CCCCC2)cc(F)c1Oc1ncccc1-c1ccnc(N[C@H]2CCCNC2)n1` [Compound 117, (S)-N-(3-fluoro-5-methyl-4-((3-(2-(piperidin-3-ylamino)pyrimidin-4-yl)pyridin-2-yl)oxy)phenyl)cyclohexanesulfonamide hydrochloride], the concentration for half-maximal inhibition (IC50) was found to be 21 nM.
In the case of `CC(F)(F)C1CNCC(Nc2nccc(-c3cccnc3Oc3cc(F)c(NS(=O)(=O)Cc4ccccc4)c(F)c3F)n2)C1` (single isomer, unassigned) [Compound 339, N-(4-((3-(2-((5-(1, l-Difluoroethyl)piperidin-3-yl)amino)pyrimidin-4-yl)pyridin-2-yl)oxy)-2,3,6-trifluorophenyl)-1-phenylmethanesulfonamide] it was 0.24 nM.
